pEC50, pIC50: −log10 of the molar value.

The target in the first assay is T1, PTK2-phosphorylation at tyrosine 397 (pY397) (Homo sapiens, UniProt Q05397).
T1 construct: endogenous in cells; host or cells: PC-3 (ATCC CRL-1435)
T1 sequence (Q05397 whole entry): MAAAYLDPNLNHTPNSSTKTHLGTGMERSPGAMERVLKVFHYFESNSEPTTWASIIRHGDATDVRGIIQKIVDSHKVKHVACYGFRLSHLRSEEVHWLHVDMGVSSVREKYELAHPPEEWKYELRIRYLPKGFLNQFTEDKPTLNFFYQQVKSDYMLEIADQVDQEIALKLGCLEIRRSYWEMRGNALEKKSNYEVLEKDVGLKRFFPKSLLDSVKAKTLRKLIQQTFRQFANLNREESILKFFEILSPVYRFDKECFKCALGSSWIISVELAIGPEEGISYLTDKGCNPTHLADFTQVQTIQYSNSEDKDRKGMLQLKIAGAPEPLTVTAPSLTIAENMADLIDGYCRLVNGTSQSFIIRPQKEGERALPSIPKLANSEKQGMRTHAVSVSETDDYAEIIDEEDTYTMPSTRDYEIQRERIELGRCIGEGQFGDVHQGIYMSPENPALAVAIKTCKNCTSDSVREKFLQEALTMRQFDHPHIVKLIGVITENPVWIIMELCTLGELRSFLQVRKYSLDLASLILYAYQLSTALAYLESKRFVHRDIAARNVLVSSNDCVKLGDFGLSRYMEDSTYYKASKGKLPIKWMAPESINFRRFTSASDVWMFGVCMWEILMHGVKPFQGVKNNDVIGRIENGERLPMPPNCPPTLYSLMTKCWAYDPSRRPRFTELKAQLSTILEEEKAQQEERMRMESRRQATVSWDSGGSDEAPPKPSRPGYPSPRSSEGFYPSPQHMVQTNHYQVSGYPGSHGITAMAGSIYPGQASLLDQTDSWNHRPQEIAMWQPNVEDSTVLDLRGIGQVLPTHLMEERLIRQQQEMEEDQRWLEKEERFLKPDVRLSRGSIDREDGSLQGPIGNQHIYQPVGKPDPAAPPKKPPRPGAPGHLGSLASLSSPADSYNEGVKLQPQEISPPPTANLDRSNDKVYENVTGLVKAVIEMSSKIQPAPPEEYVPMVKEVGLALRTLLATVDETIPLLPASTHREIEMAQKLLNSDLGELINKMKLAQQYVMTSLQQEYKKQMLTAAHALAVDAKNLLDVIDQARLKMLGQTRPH
The experiment in a line: Phospho-PTK2 (pY397) Assay in PC-3 cells. The assay is classed as cell-based. As to conditions: PC-3 prostate carcinoma cells, 2 h incubation; read-out: PC3pPTK2 Y397 EC50. On the procedure:
This cellular test is used to determine the influence of PTK2-inhibitors on the state of the PTK2-phosphorylation at tyrosine 397 (pY397).
PC-3 cells (prostate carcinoma, ATCC CRL-1435) are grown in cell culture flasks (175 cm^2) with F12 Kaighn's Medium (Gibco, No.: 21127) with the addition of 10% foetal calf serum (Invitrogen, No.: 16000-044). The cultures are incubated in the incubator at 37° C. and 5% CO2 and run twice a week.
For the test, 2×10^4 cells pro well/[…] are plated out in 96-well microtitre plates (Costar, No.: 3598) and incubated overnight in the incubator at 37° C. and 5% CO2. The test compounds (10 μL from serial dilution) are added the next day. The concentration of the test compounds usually covers a range of 50 μM and 0.8 nM. The test compounds (stock solution: 10 mM in 100% DMSO) are diluted in medium/medium 10% DMSO such that the final concentration is 1% DMSO. The cells are then incubated in the incubator at 37° C. and 5% CO2 for 2 h. Then the culture supernatant is removed and the cells are fixed with 150 μL 4% formaldehyde in D-PBS for 20 min at RT. The cell lawn is washed five times with 200 μL 0.1% Triton X-100 in D-PBS for 5 min in each case and then incubated for 90 min with blocking buffer (5% skimmed milk powder (Maresi Fixmilch) in TBST (25 mM Tris/HCl, pH 8.0, 150 mM NaCl, 0.05% Tween 20). The blocking buffer is replaced by 50 μL of the first antibody anti-phospho PTK2 [pY397] rabbit monoclonal (Invitrogen/Biosource, No.: 44-625G), which is diluted 1:200 in blocking buffer. For control purposes, alternatively a PTK2 [total] antibody (clone 4.47 mouse monoclonal, Upstate, No.: 05-537), diluted 1:400 in blocking buffer is used. This incubation is carried out at 4° C. overnight. Then the cell lawn is washed five times with 100 μL of 0.1% Tween in D-PBS for 5 min in each case and 50 μL/well of second antibody are added. In order to detect bound phospho-PTK2 [pY397] antibody a goat-anti-rabbit antibody is used which is coupled with horseradish peroxidase (Dako, No.: P0448; 1:500 dilution in blocking buffer). In order to detect bound PTK2 [total]-antibodies a rabbit-anti-mouse antibody is used, which is also coupled with horseradish peroxidase (Dako, No.: PO161; 1:1000 dilution in blocking buffer). This incubation is carried out for 1 h at RT with gentle shaking. The cell lawn is then again washed five times with 100 μL of 0.1% Tween in D-PBS for 5 min in each case. […] The EC50 values are determined from concentration-activity analyses by iterative calculation with the aid of a sigmoidal curve analysis algorithm (FIFTY, based on GraphPAD Prism Version 3.03) with a variable Hill coefficient.
Regarding `COC(=O)Nc1cc(OC)c(Nc2ncc(C(F)(F)F)c(NCc3ccc(F)cc3N(C)S(C)(=O)=O)n2)cc1C` [Example 126], the pEC50 (in general, the EC50 on a negative log10 scale, so that one unit is a factor of ten) was 8.52. As for `COc1cc(C(=O)N(C)C)c(C)cc1Nc1ncc(C(F)(F)F)c(NCc2ccc(C)cc2N(C)S(C)(=O)=O)n1` [Example 123], the pEC50 was 8.52.

Consider `COc1cc(C(=O)NC2CCN(C)CC2)c(F)cc1Nc1ncc(C(F)(F)F)c(NCc2ccc(C)cc2N(C)S(C)(=O)=O)n1` [Example 43], for which the pEC50 was 9.40. As to `COc1cc(C(=O)NC2CCCN(C)C2)ccc1Nc1ncc(C(F)(F)F)c(NCc2ccc(C)cc2N(C)S(C)(=O)=O)n1` (stereo not shown) [Example 7], the negative-log EC50 (pEC50) is 9.85. Still for that read-out and setting: the value for `COc1cc(C(=O)NCCn2ccnc2)ccc1Nc1ncc(C(F)(F)F)c(NCc2ccc(C)cc2N(C)S(C)(=O)=O)n1` [Example 13] was 9.80. With `COc1cc(C(=O)NCCN2CCCCC2)ccc1Nc1ncc(C(F)(F)F)c(NCc2ccc(C)cc2N(C)S(C)(=O)=O)n1` [Example 20], the pEC50 was 9.66. On the same count and under the same terms, the value for `COc1cc(C(=O)N[C@@H]2CCN(C)C[C@@H]2F)c(F)cc1Nc1ncc(C(F)(F)F)c(NCc2ccc(C)cc2N(C)S(C)(=O)=O)n1` [Example 24] was 9.64; that for `COc1cc(C(=O)N[C@@H]2CCCN(CC3CC3)C2)ccc1Nc1ncc(C(F)(F)F)c(NCc2ccc(C)cc2N(C)S(C)(=O)=O)n1` [Example 85] was 9.00.

The target in a further assay is T2, PTK2 (Homo sapiens, UniProt Q05397).
T2 construct: purchased Invitrogen PV3832
T2 sequence (Q05397 whole entry): as above
The experiment in a line: PTK2 Enzyme Test (DELFIA assay, poly-Glu-Tyr substrate). The assay is classed as biochemical. Conditions: active PTK2 enzyme, 50 μM ATP in ATP Mix, 1 h pre-incubation. On the procedure:
This test uses active PTK2 enzyme (Invitrogen Code PV3832) and poly-Glu-Tyr (4:1, Sigma P-0275) as the kinase substrate. The kinase activity is detected by means of the phosphorylation of the substrate in a DELFIA™ assay. The phosphorylated substrate is detected with the Europium-labelled phosphotyrosine antibody PY20 (Perkin Elmer, No.: AD0038).
In order to determine concentration-activity curves with PTK2-inhibitors the compounds are serially diluted in 10% DMSO/H2O and 10 μL of each dilution are dispensed per well in a 96-well microtitre plate (clear U-shaped base plate, Greiner No. 650101) (the inhibitors are tested in duplicates) and mixed with 10 μL/well of PTK2 kinase (0.01 μg/well). PTK2 kinase is diluted accordingly beforehand with kinase dilution buffer (20 mM TRIS/HCl pH 7.5, 0.1 mM EDTA, 0.1 mM EGTA, 0.286 mM sodium orthovanadate, 10% glycerol with the addition of freshly prepared BSA (fraction V 1 mg/mL) and DTT (1 mM)). The test compound and the PTK2 kinase are pre-incubated for 1 h at RT and shaken at 500 rpm. Then 20 μL ATP Mix (30 mM TRIS/HCl pH 7.5, 0.02% Brij, 0.2 mM sodium orthovanadate, 10 mM magnesium acetate, 0.1 mM EGTA, 1× Phosphatase Inhibitor Cocktail 1 (Sigma, No.: P2850), 50 μM ATP (Sigma, No.: A3377; 15 mM stock solution)) are added. The reaction is started by the addition of 10 μL/well of poly (Glu,Tyr) substrate (25 μg/well poly (Glu,Tyr), 0.05 μg/well biotinylated poly (Glu,Tyr) dissolved in 250 mM TRIS/HCl pH 7.5, 9 mM DTT)—the final concentration of DMSO is 2%. After 1 h kinase reaction (the plates are shaken at 500 rpm), the reaction is stopped by the addition of 12 μL/well of 100 mM EDTA, pH 8. And shaken for a further 5 min at RT (500 U/min).
55 μL of the reaction mixture are transferred into a streptavidin plate (Strepta Well High Bind (transparent, 96-well) made by Roche, No.: 11989685001) and incubated for 1 h at RT (shaking at 500 rpm). Then the microtitre plate is washed three times with 200 μL/well D-PBS (Invitrogen, No.:14190). 100 μL of 1:2000 diluted DELFIA Eu-N1 Anti-Phosphotyrosine PY20 antibody (Perkin Elmer, No.: AD0038, 1:2000 diluted in DELFIA test buffer (Perkin Elmer, No.: 1244-111)) is then added and it is incubated for 1 h at RT (shaking at 500 rpm). Then the plate is washed three times with 200 μL/well DELFIA washing buffer (Perkin Elmer, No.: 1244-114), 200 μL/well strengthening solution (Perkin Elmer, No.: 1244-105) is added and the whole is incubated for 10 min at RT (shaking at 300 rpm).
The time-delayed europium fluorescence is then measured in a microtitre plate reader (Victor, Perkin Elmer). The positive control consists of wells that contain solvent (2% DMSO in test buffer) and display uninhibited kinase activity. Wells that contain test buffer instead of enzyme act as a control for the background kinase activity.
The IC50 values are determined from concentration-activity analyses by iterative calculation using a sigmoidal curve analysis algorithm (FIFTY, based on GraphPAD Prism Version 3.03) with a variable Hill coefficient.
With `COC(=O)Nc1cc(OC)c(Nc2ncc(C(F)(F)F)c(NCc3ccc(F)cc3N(C)S(C)(=O)=O)n2)cc1C` [Example 126], the negative logarithm of the IC50 (pIC50) (commonly the negative decadic logarithm of the IC50, by convention in mol/L) was 8.22. On the same count and under the same terms, the value for `COc1cc(C(=O)N(C)C)c(C)cc1Nc1ncc(C(F)(F)F)c(NCc2ccc(C)cc2N(C)S(C)(=O)=O)n1` [Example 123] was 8.05. As to `COc1cc(C(=O)NC2CCN(C)CC2)c(F)cc1Nc1ncc(C(F)(F)F)c(NCc2ccc(C)cc2N(C)S(C)(=O)=O)n1` [Example 43], the pIC50 was 8.70. Against the preceding compound, the pIC50 is 0.65 log units higher. Still for that read-out and setting: the value for `COc1cc(C(=O)NC2CCCN(C)C2)ccc1Nc1ncc(C(F)(F)F)c(NCc2ccc(C)cc2N(C)S(C)(=O)=O)n1` (stereo not shown) [Example 7] was 8.52; that for `COc1cc(C(=O)NCCn2ccnc2)ccc1Nc1ncc(C(F)(F)F)c(NCc2ccc(C)cc2N(C)S(C)(=O)=O)n1` [Example 13] was 8.70. `COc1cc(C(=O)NCCN2CCCCC2)ccc1Nc1ncc(C(F)(F)F)c(NCc2ccc(C)cc2N(C)S(C)(=O)=O)n1` [Example 20]: the negative logarithm of the IC50 (pIC50) was 8.70. The same measure, in the same setting: the same measure for `COc1cc(C(=O)N[C@@H]2CCN(C)C[C@@H]2F)c(F)cc1Nc1ncc(C(F)(F)F)c(NCc2ccc(C)cc2N(C)S(C)(=O)=O)n1` [Example 24]: 8.52; for `COc1cc(C(=O)N[C@@H]2CCCN(CC3CC3)C2)ccc1Nc1ncc(C(F)(F)F)c(NCc2ccc(C)cc2N(C)S(C)(=O)=O)n1` [Example 85]: 8.52; for `CCc1cc(C(=O)NC2CCOCC2)ccc1Nc1ncc(C(F)(F)F)c(NCc2ccc(C)cc2N(C)S(C)(=O)=O)n1` [Example 132]: 8.40. The same measure, in the same setting: the value for `COc1ccc(CNc2nc(Nc3cc(F)c(C(=O)NC(C)(C)C)cc3OC)ncc2C(F)(F)F)c(N(C)S(C)(=O)=O)c1` [Example 128] was 7.66. In the case of `Cc1ccc(CNc2nc(Nc3cc(F)c(N4CCNCC4)cc3F)ncc2C(F)(F)F)c(N(C)S(C)(=O)=O)c1` [Example 129], the pIC50 was 9.00. On the same count and under the same terms, the same measure for `COc1cc(C(=O)N[C@@H]2CCN(C)C[C@H]2F)ccc1Nc1ncc(C(F)(F)F)c(NCc2ccc(C)cc2N(C)S(C)(=O)=O)n1` [Example 131]: 8.40.

On to `CNC(=O)c1ccc(Nc2ncc(C(F)(F)F)c(NCc3ccc(C)cc3N(C)S(C)(=O)=O)n2)c(C)c1` [Example 130], for which the negative-log IC50 (pIC50) was 9.00.

In turn, `CNC(=O)c1cc(OC)c(Nc2ncc(C(F)(F)F)c(NCc3ccc(OC)cc3N(C)S(C)(=O)=O)n2)cc1F` [Example 127] gave a pIC50 of 8.40.

For the origin of these results see patent publication US8377943B2, “2,4-diaminopyrimidine derivates as PTK2-inhibitors for the treatment of abnormal cell growth” (Boehringer Ingelheim International GmbH, priority 2008, dated 2013).
